Assay results: patent publication US7297676B2, “Thymosin alpha 1 peptide/polymer conjugates” (SciClone Pharmaceuticals, Inc., priority 2001, dated 2007)
Ends that are not written are not given here.

How the values were obtained:
NK activity = assay: Example 1: return of NK activity in 5-FU immune-suppressed rats; format: in vivo, rat; settings: one injection, molar equivalent of 200 ug/kg thymosin, compared with Thymosin alpha 1 200 ug/kg
Description: (§1) Rats were injected with 5-fluorouracil (5-FU) to cause immune suppression, then were treated with an injection of thymosin alpha 1 (200 ug/kg) or pegylated thymosin alpha 1 (20,000 MW PEG-Thymosin alpha 1) (the equivalent on a molar basis of 200 ug/kg of thymosin molecules) to determine the effect on immune parameters.

activated T cells, CD25+ = assay: Example 1: return of activated T cells in 5-FU immune-suppressed rats; format: in vivo, rat; settings: one injection, molar equivalent of 200 ug/kg thymosin, compared with Thymosin alpha 1 200 ug/kg
Description: as §1

[1] = Adverse events observed in the rat studies; format: in vivo
Description: In the following examples, which are not intended to be limiting, a continuous infusion of TA1 was evaluated in a cancer therapy model with the use of surgically implanted osmotic minipumps, which deliver fluids at a constant flow rate for 5 days. Rats were given 5-fluorouracil (5-FU) to cause immune suppression, and then treated with injected or infused TA1 8 days later (the nadir of white cell count after 5-FU). Treatment groups, 8 rats each, were: control (minipumps with saline); low dose TA1 (0.2 mg/Kg sc injection; empty minipumps); high dose TA1 (3.5 mg/Kg sc injection; empty minipumps); and high dose infused TA1 (3.5 mg/Kg infused by minipumps). Immune parameters were determined at baseline and 8 days after 5-FU treatment (day 1 of TA1 treatment), and also at 5, 12, 20, and 27 days after TA1 treatment.
8 days after 5-FU treatment, rats were randomly assigned to one of the following groups (n=15): • Control (saline in minipump) • High dose TA1, injected s.c. at 3.5 mg/Kg (with empty minipumps) • Continuous infusion TA1, provided by minipump at 3.5 mg/Kg/5 days

[2] = cited from earlier work
[3] = subcutaneously injected; cited from earlier work

Row | Substance | return of NK activity (after depression by 5-FU) (NK activity) | return of activated T cells, CD25+ (activated T cells, CD25+) | adverse events ([1]; one rat given both injection 3.5 mg/Kg and continuous infusion of another 3.5 mg/Kg) | adverse events ([1]; rats, doses 15 times higher than usual (in one animal 30 times higher)) | dose found to be safe for humans [2] | plasma half-life [3]
1 | PEG-Thymosin alpha 1: 20,000 molecular weight PEG conjugated to the N-terminal end of TA1 ({PEG 20 kDa}-SDAAVDTSSEITTKDLKEKKEVVEEAEN; ends and bridges not checked; UniProt P06454 2-29, looked up) | greater | greater |  |  |  | 
2 | Ac-SDAAVDTSSEITTKDLKEKKEVVEEAEN-OH [TA1, Thymosin alpha 1] |  |  | no obvious adverse events | No adverse events were observed | ≤ 16 mg/kg body weight/day | about 2 hours
